The subject of the experiment is tumor-bearing animal models. The experiment can be described thus: Planar images of tumor-bearing animal models. The class given is in vivo. The settings on record: tumor-bearing animal models (FIGS. 5-7, 9, 10).

Description: Imaging studies were performed 12 to 15 days after inoculation. Tumor sizes of approximately 1-1.5 cm were measured. Scintigraphic images were obtained using an M-camera from Siemens Medical Systems (Hoffman Estates, Ill.). The camera was equipped with a low-energy parallel-hole collimator.
Planar scintigraphy was obtained at immediate, 0.5-4 hrs after i.v. injection of ^99mTc—N4-DG, or ^99mTc—N4 (0.3 mCi/rat; 0.1 mg mass/rabbit). To compare the radiotracer accumulation, ROIs (region of interest in counts per pixel) were determined. The ROIs count between tumor and muscle was used to calculate tumor-to-nontumor ratios.

Turning to `CC(N)(Cc1ccc(OCCCN2CCCNCCNCCCNCC2)cc1)C(=O)O` (stereo not shown) [Example N4-AMT], the “tumor visualization on planar images” value is listed as “visualized clearly”.

These data come from patent US8758723B2, “Compositions and methods for cellular imaging and therapy” (The Board of Regents of the University of Texas System, priority 2006, dated 2014).
